Data published in patent publication US6913760B2, “Drug delivery composition” (New England Medical Hospitals, Inc., priority 2001, dated 2005).
“And” between values parts separate entries of the source, which are not always exact repeats. Equal values may be shown once. Marks after values point to notes of the source that are not given here.

Columns and labels:
[1] = In vitro release of BP or HM from PLGA 50:50 rods; assay type: physicochemical; details: BP rods of first batch
[2] = rat
[3] = test system: rats; assay: Anesthesia after intrathecal polymeric implants, all sites tested (Example 2); assay type: in vivo; details: intrathecal rods
[4] = test system: rats; assay: Paw withdrawal test after intrathecal implantation of PLGA rods; assay type: in vivo; details: for % MPE, paw withdrawal test, Average: average of 6 rats
[5] = Drug release studies of PLGA 85:15 rods (Example 2); assay type: physicochemical
[6] = test system: rats; assay: Tail flick test after intrathecal implantation of PLGA rods; assay type: in vivo; details: for % MPE, tail flick test, Average: average of 6 rats
[7] = test system: rats with sciatic nerve ligation; assay: Paw withdrawal threshold after sciatic nerve ligation, rods placed parallel to the nerve; assay type: in vivo, Sprague-Dawley rats
[8] = trapezoidal method, individual rats, listed as BP
[9] = trapezoidal method, mean of 6 rats

## CCCCN1CCCCC1C(=O)Nc1c(C)cccc1C (stereo not shown) [Bupivacaine, bupivacaine]
[1]
  in vitro release behavior: zero order release pattern with two different rates
[2]
  release from rods retrieved after termination of in vivo test: suppressed release
[3]
  duration of anesthesia/analgesia: at least 4 days
[4]; 2h, L
  % MPE, paw withdrawal test, Average: 26.10 % MPE
[4]; 2h, R
  % MPE, paw withdrawal test, Average: 27.87 % MPE
[4]; 2h, left (L) hind paw, individual rats
  % MPE, paw withdrawal test: 24.92 % MPE and 36.09 % MPE and 19.26 % MPE and 23.67 % MPE and 15.95 % MPE and 36.73 % MPE
[4]; 2h, right (R) hind paw, individual rats
  % MPE, paw withdrawal test: 19.06 % MPE and 39.35 % MPE and 20.77 % MPE and 27 % MPE and 22.43 % MPE and 38.63 % MPE
[4]; 4h, L
  % MPE, paw withdrawal test, Average: 26.48 % MPE
[4]; 4h, L, individual rats
  % MPE, paw withdrawal test: 27.69 % MPE and 55.64 % MPE and 11.48 % MPE and 14.67 % MPE and 37.74 % MPE and 11.64 % MPE
[4]; 4h, R
  % MPE, paw withdrawal test, Average: 29.68 % MPE
[4]; 4h, R, individual rats
  % MPE, paw withdrawal test: 38.12 % MPE and 58.84 % MPE and 13.08 % MPE and 12 % MPE and 44.11 % MPE and 11.91 % MPE
[4]; D1, L
  % MPE, paw withdrawal test, Average: 23.61 % MPE
[4]; D1, L, individual rats
  % MPE, paw withdrawal test: 33.85 % MPE and 35.71 % MPE and 11.11 % MPE and 39 % MPE and 13.62 % MPE and 8.36 % MPE
[4]; D1, R
  % MPE, paw withdrawal test, Average: 22.68 % MPE
[4]; D1, R, individual rats
  % MPE, paw withdrawal test: 30.62 % MPE and 43.32 % MPE and 11.54 % MPE and 32 % MPE and 11.03 % MPE and 7.58 % MPE
[4]; D2, L
  % MPE, paw withdrawal test, Average: 26.91 % MPE
[4]; D2, L, individual rats
  % MPE, paw withdrawal test: 28.92 % MPE and 42.86 % MPE and 18.15 % MPE and 29 % MPE and 33.07 % MPE and 9.45 % MPE
[4]; D2, R
  % MPE, paw withdrawal test, Average: 27.13 % MPE
[4]; D2, R, individual rats
  % MPE, paw withdrawal test: 28.12 % MPE and 44.76 % MPE and 15.77 % MPE and 28.33 % MPE and 34.60 % MPE and 11.19 % MPE
[4]; D3, L
  % MPE, paw withdrawal test, Average: 15.06 % MPE
[4]; D3, L, individual rats
  % MPE, paw withdrawal test: 20.37 % MPE and 7.33 % MPE and 9.73 % MPE and 5.09 % MPE and 16.62 % MPE and 31.20 % MPE
[4]; D3, R
  % MPE, paw withdrawal test, Average: 15.70 % MPE
[4]; D3, R, individual rats
  % MPE, paw withdrawal test: 17.31 % MPE and 4.67 % MPE and 12.55 % MPE and 0.36 % MPE and 24.69 % MPE and 34.66 % MPE
[4]; D4, L
  % MPE, paw withdrawal test, Average: 9.72 % MPE
[4]; D4, L, individual rats
  % MPE, paw withdrawal test: 7.78 % MPE and 13.67 % MPE and 1.55 % MPE and 0 % MPE and 25.54 % MPE and 9.77 % MPE
[4]; D4, R
  % MPE, paw withdrawal test, Average: 9.56 % MPE
[4]; D4, R, individual rats
  % MPE, paw withdrawal test: 8.46 % MPE and 15.67 % MPE and 0.76 % MPE and 1.08 % MPE and 20.94 % MPE and 10.47 % MPE
[4]; D5, L
  % MPE, paw withdrawal test, Average: 6.49 % MPE
[4]; D5, L, individual rats
  % MPE, paw withdrawal test: 0.74 % MPE and 1 % MPE and 1.94 % MPE and 1.45 % MPE and 18.77 % MPE and 15.04 % MPE
[4]; D5, R
  % MPE, paw withdrawal test, Average: 6.55 % MPE
[4]; D5, R, individual rats
  % MPE, paw withdrawal test: 0.38 % MPE and 3 % MPE and 2.66 % MPE and 1.44 % MPE and 18.44 % MPE and 13.36 % MPE
[4]; D6, L
  % MPE, paw withdrawal test, Average: 4.88 % MPE
[4]; D6, L, individual rats
  % MPE, paw withdrawal test: 0.37 % MPE and 7 % MPE and 0.39 % MPE and −1.82 % MPE and 10.15 % MPE and 13.16 % MPE
[4]; D6, R
  % MPE, paw withdrawal test, Average: 7.35 % MPE
[4]; D6, R, individual rats
  % MPE, paw withdrawal test: 0.77 % MPE and 11 % MPE and 4.94 % MPE and 2.89 % MPE and 9.69 % MPE and 14.80 % MPE
[4]; [8]
  Area under the curve (AUC), paw withdrawal test (left side): 165.34 and 63.50 and 98.08 and 77.02 and 29.59 and 139.80
  Area under the curve (AUC), paw withdrawal test (right side): 179.14 and 59.77 and 93.21 and 84.38 and 29.51 and 143.50
[4]; [9]
  Area under the curve (AUC), paw withdrawal test (left side), Mean: 95.55 * #
  Area under the curve (AUC), paw withdrawal test (right side), Mean: 98.25 * #
[5]
  relative rate of drug release: released faster than the other two drugs
  release order: almost zero order
[6]; 2h
  % MPE, tail flick test, Average: 40.52 % MPE
[6]; 2h after intrathecal implantation of PLGA rod, individual rats
  % MPE, tail flick test: 31.19 % MPE and 41.43 % MPE and 63.08 % MPE and 30.89 % MPE and 23.85 % MPE and 52.69 % MPE
[6]; 4h
  % MPE, tail flick test, Average: 39.06 % MPE
[6]; 4h, individual rats
  % MPE, tail flick test: 24.2268 % MPE and 38.87 % MPE and 40.26 % MPE and 44.7644 % MPE and 11.79 % MPE and 74.46 % MPE
[6]; % MPE versus time in days, trapezoidal method, individual rats, listed as BP
  Area under the curve (AUC), tail flick test: 130.77 and 82.59 and 112.23 and 137.33 and 90.32 and 72.88
[6]; % MPE versus time in days, trapezoidal method, mean of 6 rats
  Area under the curve (AUC), tail flick test, Mean: 104.35 * #
[6]; D1
  % MPE, tail flick test, Average: 23.1672 % MPE
[6]; D1, individual rats
  % MPE, tail flick test: 14.95 % MPE and 27.11 % MPE and 31.79 % MPE and 25.65 % MPE and 11.54 % MPE and 27.96 % MPE
[6]; D2
  % MPE, tail flick test, Average: 22.55 % MPE
[6]; D2, individual rats
  % MPE, tail flick test: 13.4 % MPE and 32.23 % MPE and 40.51 % MPE and 16.49 % MPE and 13.33 % MPE and 19.35 % MPE
[6]; D3
  % MPE, tail flick test, Average: 19.97 % MPE
[6]; D3, individual rats
  % MPE, tail flick test: 14.95 % MPE and 22.51 % MPE and 26.92 % MPE and 13.87 % MPE and 18.46 % MPE and 23.12 % MPE
[6]; D4
  % MPE, tail flick test, Average: 10.7 % MPE
[6]; D4, individual rats
  % MPE, tail flick test: 14.43 % MPE and 14.0665 % MPE and 7.949 % MPE and 5.236 % MPE and 12.5641 % MPE and 9.946 % MPE
[6]; D5
  % MPE, tail flick test, Average: 8.394 % MPE
[6]; D5, individual rats
  % MPE, tail flick test: 9.536 % MPE and 4.092 % MPE and 7.692 % MPE and 5.236 % MPE and 7.949 % MPE and 15.86 % MPE
[6]; D6
  % MPE, tail flick test, Average: 5.511 % MPE
[6]; D6, individual rats
  % MPE, tail flick test: 8.247 % MPE and 0.7673 % MPE and 7.949 % MPE and 8.115 % MPE and 7.179 % MPE and 0.8065 % MPE
[7]; dose doubled (4 rods/rat)
  analgesia, paw withdrawal threshold (difference score): possible to achieve the analgesic effect
[7]; first part, single dose (2 rods/rat)
  analgesia, paw withdrawal threshold (difference score): insufficient to provide analgesia
